The subject of one test is NA transporter. In words: Inhibition of noradrenaline uptake in rat brain synaptosomes. Type of test: biochemical. The conditions noted are these: Table III.
The next test addresses T1, 5-HT transporter (Rattus norvegicus, UniProt P31652).
T1 construct: synaptosomes of rat brain areas are freshly isolated; from tissue; host or cells: rat brain synaptosomes (P2 fraction) from marrow and pons
In words: Inhibition of 5-HT uptake in rat brain synaptosomes. Type of test: biochemical. Particulars: read-out: Uptake 5-HT, % inhibition; Table III; rat, 1 μM.

In test [1] the test system is batrachotoxin (BTX) binding site of the sodium channel. In words: Affinity to the batrachotoxin (BTX) binding site of the sodium channel. The conditions noted are these: Table III; rat cerebrocortex synaptosomes; test concentration not given.

Structures are written as SMILES.

T1 sequence (P31652 whole entry): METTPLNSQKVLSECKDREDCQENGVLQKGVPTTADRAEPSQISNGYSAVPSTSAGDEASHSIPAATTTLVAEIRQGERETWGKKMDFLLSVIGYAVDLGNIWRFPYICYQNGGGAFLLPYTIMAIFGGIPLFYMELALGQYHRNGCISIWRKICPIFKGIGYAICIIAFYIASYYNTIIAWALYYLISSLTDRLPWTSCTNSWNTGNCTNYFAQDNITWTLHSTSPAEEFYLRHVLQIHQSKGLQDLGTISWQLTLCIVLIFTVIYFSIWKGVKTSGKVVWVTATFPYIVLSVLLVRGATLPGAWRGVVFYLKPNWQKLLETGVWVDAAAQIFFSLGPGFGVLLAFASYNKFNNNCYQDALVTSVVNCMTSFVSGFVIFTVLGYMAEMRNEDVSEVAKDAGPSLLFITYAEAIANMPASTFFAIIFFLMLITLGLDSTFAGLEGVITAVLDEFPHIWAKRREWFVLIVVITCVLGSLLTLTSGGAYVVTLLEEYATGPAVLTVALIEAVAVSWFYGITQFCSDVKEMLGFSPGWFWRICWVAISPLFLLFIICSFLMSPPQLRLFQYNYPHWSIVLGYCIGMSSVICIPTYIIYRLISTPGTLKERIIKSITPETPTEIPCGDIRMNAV

As to `O=C1NC2(CCN(C(=O)c3ccc4ccccc4c3)CC2)NC1Cc1ccccc1` (centres unmarked) [Example 122, 3-Benzyl-8-(naphthalin-2-carbonyl)-1,4,8-triazaspiro[4,5]decan-2-one], the “Uptake (NA), rat, 10 μM, % inhibition” value in the test on NA transporter came to 38%. In addition, the inhibition (in general, the change of the read-out against control, counted positive when it falls) at 1 µM at 5-HT transporter was 34%.

With `COCC(=O)N1CCC2(CC1)NC(CCSC)C(=O)N2Cc1cccc(C#N)c1` (centres unmarked) [Example 112, 3-[8-(2-Methoxyacetyl)-3-(2-methylsulfanylethyl)-2-oxo-1,4,8-triazaspiro[4,5]dec-1-ylmethyl]benzonitrile], in the test on NA transporter, the “Uptake (NA), rat, 10 μM, % inhibition” value is on record as 42%. The inhibition at 1 µM on 5-HT transporter is 43%.

`N#Cc1ccccc1CN1C(=O)CNC12CCN(C(=O)C=Cc1ccccc1Cl)CC2` [Example 89, 2-{8-[3-(2-Chlorophenyl)acryloyl]-2-oxo-1,4,8-triazaspiro[4,5]dec-1-ylmethyl}benzonitrile]: the “Uptake (NA), rat, 10 μM, % inhibition” value with NA transporter is given as 41%. Moreover, the inhibition at 1 µM on 5-HT transporter worked out at 43%.

For `COc1cc(OC)cc(C(=O)N2CCC3(CC2)NC(=O)C(CC(C)C)N3)c1` (centres unmarked) [Example 92, 8-(3,5-Dimethoxybenzoyl)-3-isobutyl-1,4,8-triazaspiro[4,5]decan-2-one], in the test on NA transporter, the “Uptake (NA), rat, 10 μM, % inhibition” value is given as 30%. In addition, the inhibition at 1 µM on 5-HT transporter was found to be 30%.

As to `CCCCN1C(=O)C(CCSC)NC12CCN(C(=O)Cc1ccc(OC)c(OC)c1)CC2` (centres unmarked) [Example 97, 1-Butyl-8-[2-(3,4-dimethoxyphenyl)acetyl]-3-(2-methylsulfanylethyl)-1,4,8-triazaspiro[4,5]decan-2-one], in the test on NA transporter, the “Uptake (NA), rat, 10 μM, % inhibition” value was 30%. Further, on 5-HT transporter, the inhibition at 1 µM is 67%.

Turning to `CCOC(=O)CN1C(=O)C(Cc2ccccc2)NC12CCN(C(=O)c1ccc(S(N)(=O)=O)cc1)CC2` (centres unmarked) [Example 276, Ethyl [3-benzyl-2-oxo-8-(4-sulfamoylbenzoyl)-1,4,8-triazaspiro[4,5]dec-1-yl]acetate], the “Uptake (NA), rat, 10 μM, % inhibition” value with NA transporter is reported as 46%. The inhibition at 1 µM at 5-HT transporter is 95%.

Take `CC(C)CC1NC2(CCN(C(=O)c3cccc(Cl)c3)CC2)NC1=O` (centres unmarked) [Example 90, 8-(3-Chlorobenzoyl)-3-isobutyl-1,4,8-triazaspiro[4,5]decan-2-one]: the “Uptake (NA), rat, 10 μM, % inhibition” value in the test with NA transporter is recorded as 35%. Further, the inhibition at 1 µM at 5-HT transporter stood at 41%.

As to `C=CCCC(=O)N1CCC2(CC1)NC(Cc1ccccc1)C(=O)N2C` (centres unmarked) [Example 139, 3-Benzyl-1-methyl-8-pent-4-enoyl-1,4,8-triazaspiro[4,5]decan-2-one], the “Uptake (NA), rat, 10 μM, % inhibition” value in the test with NA transporter was determined as 31%.

Turning to `CC(C)C1NC2(CCN(C(=O)c3ccncc3)CC2)N(Cc2ccccc2)C1=O` (centres unmarked) [Example 98, 1-Benzyl-3-isopropyl-8-(pyridin-4-carbonyl)-1,4,8-triazaspiro[4,5]decan-2-one], the “Uptake (NA), rat, 10 μM, % inhibition” value in the test on NA transporter is given as 36%. The inhibition at 1 µM at 5-HT transporter is 57%.

Take `COc1cc(C(=O)N2CCC3(CC2)NCC(=O)N3Cc2ccccc2F)cc(OC)c1OC` [Example 271, 1-(2-Fluorobenzyl)-8-(3,4,5-trimethoxybenzoyl)-1,4,8-triazaspiro[4,5]decan-2-one]: in the test with NA transporter, the “Uptake (NA), rat, 10 μM, % inhibition” value came out at 31%. Also, the inhibition at 1 µM on 5-HT transporter came to 44%.

As to `Cc1cccc(C(=O)N2CCC3(CC2)NC(=O)C(Cc2ccccc2)N3)c1C` (centres unmarked) [Example 108, 3-Benzyl-8-(2,3-dimethylbenzoyl)-1,4,8-triazaspiro[4,5]decan-2-one], the “Uptake (NA), rat, 10 μM, % inhibition” value in the test on NA transporter is on record as 37%.

For `CC(C)CC1NC2(CCN(C(=O)c3sccc3Cl)CC2)NC1=O` (centres unmarked) [Example 94, 8-(3-Chlorothiophene-2-carbonyl)-3-isobutyl-1,4,8-triazaspiro[4,5]decan-2-one], the “Uptake (NA), rat, 10 μM, % inhibition” value in the test on NA transporter turned out to be 38%.

As for `CCOC(=O)CN1C(=O)C(CCSC)NC12CCN(C(=O)c1ccccc1C(=O)OCc1ccccc1)CC2` (centres unmarked) [Example 332, Benzyl 2-[1-ethoxycarbonylmethyl-3-(2-methylsulfanylethyl)-2-oxo-1,4,8-triazaspiro[4,5]decan-8-carbonyl]benzoate], the “Uptake (NA), rat, 10 μM, % inhibition” value with NA transporter came to 36%.

As for `CSCCC1NC2(CCN(C(=O)c3ccc4c(c3)OCO4)CC2)N(Cc2cccc(C#N)c2)C1=O` (centres unmarked) [Example 138, 3-[8-(Benzo[1,3]dioxol-5-carbonyl)-3-(2-methylsulfanylethyl)-2-oxo-1,4,8-triazaspiro[4,5]dec-1-ylmethyl]benzonitrile], the “Uptake (NA), rat, 10 μM, % inhibition” value with NA transporter was determined as 30%.

Take `CN1C(=O)C(Cc2ccccc2)NC12CCN(C(=O)c1ccc([N+](=O)[O-])cc1)CC2` (centres unmarked) [Example 238, 3-Benzyl-1-methyl-8-(4-nitrobenzoyl)-1,4,8-triazaspiro[4,5]decan-2-one]: the “Uptake (NA), rat, 10 μM, % inhibition” value with NA transporter turned out to be 31%.

Regarding `CSCCC1NC2(CCN(C(=O)c3cccnc3Oc3ccccc3)CC2)N(C)C1=O` (centres unmarked) [Example 120, 1-Methyl-3-(2-methylsulfanylethyl)-8-(2-phenoxypyridin-3-carbonyl)-1,4,8-triazaspiro[4,5]decan-2-one], the “Uptake (NA), rat, 10 μM, % inhibition” value with NA transporter stood at 32%.

Take `O=C(C1CCCCC1)N1CCC2(CC1)NCC(=O)N2CCOc1ccccc1` [Example 123, 8-Cyclohexanecarbonyl-1-(2-phenoxyethyl)-1,4,8-triazaspiro[4,5]decan-2-one]: in the test with NA transporter, the “Uptake (NA), rat, 10 μM, % inhibition” value amounted to 36%.

In the case of `CC(C)CC1NC2(CCN(C(=O)COCc3ccccc3)CC2)NC1=O` (centres unmarked) [Example 80, 8-(2-Benzyloxyacetyl)-3-isobutyl-1,4,8-triazaspiro[4,5]decan-2-one], the “Uptake (NA), rat, 10 μM, % inhibition” value in the test with NA transporter is given as 30%.

Turning to `CC(C)C1NC2(CCN(C(=O)c3c(F)c(F)c(F)c(F)c3F)CC2)NC1=O` (centres unmarked) [Example 95, 3-Isopropyl-8-pentafluorobenzoyl-1,4,8-triazaspiro[4,5]decan-2-one], in the test with NA transporter, the “Uptake (NA), rat, 10 μM, % inhibition” value stood at 31%.

`COC(=O)c1ccc(CN2C(=O)CNC23CCN(C(=O)c2ccnc(Cl)c2)CC3)cc1` [Example 272, Methyl 4-[8-(2-Chloropyridin-4-earbonyl)-2-oxo-1,4,8-triazaspiro[4,5]dec-1-ylmethyl]benzoate]: the “Uptake (NA), rat, 10 μM, % inhibition” value in the test on NA transporter is 31%.

In turn, `CC(C)CC1NC2(CCN(C(=O)c3ccc(Cl)nc3)CC2)N(Cc2c(Cl)cccc2Cl)C1=O` (centres unmarked) [Example 279, 8-(6-Chloropyridin-3-carbonyl)-1-(2,6-dichlorobenzyl)-3-isobutyl-1,4,8-triazaspiro[4,5]decan-2-one] had a BTX inhibition in test [1] of 60. Moreover, the inhibition at 1 µM at 5-HT transporter was 48%.

On to `CSCCC1NC2(CCN(C(=O)CCC3CCCC3)CC2)N(Cc2ccccc2)C1=O` (centres unmarked) [Example 221, 1-Benzyl-8-(3-cyclopentylpropionyl)-3-(2-methylsulfanylethyl)-1,4,8-triazaspiro[4,5]decan-2-one], for which the BTX inhibition in test [1] worked out at 36. In addition, the inhibition at 1 µM at 5-HT transporter was 79%.

Molecule `CC(C)CC1NC2(CCN(C(=O)c3cc(C(C)(C)C)nn3C)CC2)N(Cc2cccc(C#N)c2)C1=O` (centres unmarked) [Example 218, 3-[8-(5-tert-Butyl-2-methyl-2H-pyrazole-3-carbonyl)-3-isobutyl-2-oxo-1,4,8-triazaspiro[4,5]dec-1-ylmethyl]benzonitrile] displayed a BTX inhibition in test [1] of 39. The inhibition at 1 µM at 5-HT transporter was determined as 57%.

In turn, `CCCCC(=O)N1CCC2(CC1)NC(Cc1ccccc1)C(=O)N2CC(=O)OCC` (centres unmarked) [Example 299, Ethyl (3-benzyl-2-oxo-8-pentanoyl-1,4,8-triazaspiro[4,5]dec-1-yl)acetate] displayed a BTX inhibition in test [1] of 36. At 5-HT transporter, the inhibition at 1 µM was 66%.

Molecule `Cc1ccc(C(=O)N2CCC3(CC2)NC(CC(C)C)C(=O)N3Cc2c(Cl)cccc2Cl)c(F)c1F` (centres unmarked) [Example 324, 1-(2,6-Dichlorobenzyl)-8-(2,3-difluoro-4-methylbenzoyl)-3-isobutyl-1,4,8-triazaspiro[4,5]decan-2-one] yielded a BTX inhibition in test [1] of 62. Besides, the inhibition at 1 µM at 5-HT transporter came out at 31%.

As to `CCCc1ccc(C(=O)N2CCC3(CC2)NC(CC(C)C)C(=O)N3Cc2c(Cl)cccc2Cl)cc1` (centres unmarked) [Example 317, 1-(2,6-Dichlorobenzyl)-3-isobutyl-8-(4-propylbenzoyl)-1,4,8-triazaspiro[4,5]decan-2-one], the BTX inhibition in test [1] is listed as 62. Moreover, the inhibition at 1 µM at 5-HT transporter came out at 33%.

Take `Cc1cc(C)cc(CN2C(=O)C(CC(C)C)NC23CCN(C(=O)CN(C)C)CC3)c1` (centres unmarked) [Example 309, 8-(2-Dimethylaminoacetyl)-1-(3,5-dimethylbenzyl)-3-isobutyl-1,4,8-triazaspiro[4,5]decan-2-one]: in test [1], the BTX inhibition is 82. Moreover, on 5-HT transporter, the inhibition at 1 µM was found to be 43%.

In test [1], `COc1ccc(C(=O)N2CCC3(CC2)NCC(=O)N3Cc2ccccc2F)cc1` [Example 285, 1-(2-Fluorobenzyl)-8-(4-methoxybenzoyl)-1,4,8-triazaspiro[4,5]decan-2-one] gave a BTX inhibition of 32. The inhibition at 1 µM at 5-HT transporter was found to be 65%.

`CCOC(=O)CN1C(=O)C(Cc2ccccc2)NC12CCN(C(=O)CC(C)C)CC2` (centres unmarked) [Example 294, Ethyl [3-benzyl-8-(3-methylbutyryl)-2-oxo-1,4,8-triazaspiro[4,5]dec-1-yl]acetate] came in with a BTX inhibition in test [1] of 33. The inhibition at 1 µM at 5-HT transporter stood at 53%.

On to `CCCC(C)C(=O)N1CCC2(CC1)NC(CC(C)C)C(=O)N2CC(=O)OCC` (centres unmarked) [Example 291, Ethyl [3-isobutyl-8-(2-methylpentanoyl)-2-oxo-1,4,8-triazaspiro[4,5]dec-1-yl]acetate], for which the BTX inhibition in test [1] is 33. Moreover, on 5-HT transporter, the inhibition at 1 µM came to 38%.

`O=C(c1sccc1Cl)N1CCC2(CC1)NC(Cc1ccccc1)C(=O)N2Cc1ccccc1` (centres unmarked) [Example 172, 1,3-Dibenzyl-8-(3-chlorothiophene-2-carbonyl)-1,4,8-triazaspiro[4,5]decan-2-one] displayed a BTX inhibition in test [1] of 49. Further, on 5-HT transporter, the inhibition at 1 µM was determined as 76%.

`CC(C)C1NC2(CCN(C(=O)C=Cc3ccccc3Cl)CC2)N(CCOc2ccccc2)C1=O` (centres unmarked) [Example 225, 8-[3-(2-Chlorophenyl)acryloyl]-3-isopropyl-1-(2-phenoxyethyl)-1,4,8-triazaspiro[4,5]decan-2-one] displayed a BTX inhibition in test [1] of 55. In addition, on 5-HT transporter, the inhibition at 1 µM came out at 32%.

Values taken from patent publication US7951815B2, “Substituted 1,4,8-triazaspiro [4,5]decan-2-one compounds” (Gruenenthal GmbH, priority 2004, dated 2011).
